From US7999069B2, “EphB receptor-binding peptides” (Sanford-Burnham Medical Research Institute, priority 2005, dated 2011)
No end group written: not given here.

Key:
EphB1 [1] = target: T1, EphB1 (Homo sapiens, UniProt P54762); test: Inhibition of ephrin-B2 AP binding to immobilized EphB1 ectodomain
T1 construct: panned on the ectodomains of EphB1, EphB2, or EphB4 fused to human Fc
T1 sequence (P54762 18-540 limits assumed): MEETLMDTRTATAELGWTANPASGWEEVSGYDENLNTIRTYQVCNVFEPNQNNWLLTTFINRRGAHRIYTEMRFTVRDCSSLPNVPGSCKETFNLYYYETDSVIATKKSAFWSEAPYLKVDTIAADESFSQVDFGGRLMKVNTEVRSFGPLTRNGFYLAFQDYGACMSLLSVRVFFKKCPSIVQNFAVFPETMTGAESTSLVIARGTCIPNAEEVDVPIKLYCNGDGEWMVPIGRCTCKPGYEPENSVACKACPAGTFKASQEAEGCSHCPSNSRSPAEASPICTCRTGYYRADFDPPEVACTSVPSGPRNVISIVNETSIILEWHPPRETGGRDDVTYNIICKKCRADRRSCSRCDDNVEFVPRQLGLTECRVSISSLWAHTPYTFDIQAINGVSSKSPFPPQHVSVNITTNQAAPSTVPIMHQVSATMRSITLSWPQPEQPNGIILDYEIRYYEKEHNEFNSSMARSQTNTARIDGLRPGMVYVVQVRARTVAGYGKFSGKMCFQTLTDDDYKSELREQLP
Protocol: Peptides that bind to the same receptor region as the ephrins would be expected to inhibit Eph receptor-ephrin association, if they interact with sufficient affinity. A number of synthetic peptides were tested for their ability to inhibit binding of alkaline phosphatase-tagged ephrin-B2 (ephrin-B2-AP) to EphB receptors (FIG. 3). Most of the peptides were synthesized with a biotin tag and immobilized on streptavidin plates to verify their ability to capture the EphB ectodomains used for their isolation.
Ephrin-B2 AP binding to the indicated immobilized EphB receptor ectodomains was measured in the presence of the indicated peptides and detected by measuring alkaline phosphatase activity. […]. […] Wells coated with the different EphB ectodomains were incubated with ephrin-B2 AP and 50 μM of the indicated peptides. Ephrin-B2 AP binding in the presence of peptide was normalized to binding in the absence of peptide. All peptides were biotinylated except for FSPQ and EWYM. […] Therefore, IPWT was not used for further experiments. […]
The GP motif aligns with the GP motif of TNYL and the RAW motif aligns precisely next to the last amino acid of TNYL. […] After several washes, the amount of ephrin-B2-AP bound was quantified using p-nitrophenylphosphate as a substrate. […]

EphB1 [2] = target: T1, EphB1; test: Peptide competition of phage binding to EphB1 ectodomain
Protocol: To measure peptide competition of phage binding to EphB receptors, Ni-NTA wells coated with Eph ectodomain Fc were incubated for 30 min at room temperature with various peptide concentrations in binding buffer (100 μl/well). Concentrated stocks of phage clones diluted between 1:500 and 1:10,000 in binding buffer were then added to the wells for a 1 hr at room temperature. Wells were washed and bound phage were detected using the anti-M13 antibody. A biotinylated control peptide with sequence unrelated to the sequences of the Eph-binding peptides ([…], SEQ ID NO: 40) was used as a negative control in some of the experiments, as indicated in the figure legends.
[…]. The SNEW peptide at 25 μM inhibited EphB2 binding of most phage clones isolated by panning on EphB2 (FIGS. 2E and G). The only exceptions were the IHWP, DHRWV and WHWT clones. However, binding of these clones was inhibited by 50 μM SNEW peptide, particularly when the phage concentration was halved. […] Bound phage were detected using anti-M13 phage antibody coupled to HRP and phage binding in the presence of peptide was normalized to phage binding in the absence of peptide. Error bars indicate standard deviation from duplicate measurements, and were calculated taking into account propagation of errors.

EphB receptors = test: Ephrin-B2 AP binding to different EphB ectodomains in presence of peptide (selectivity); details: 50 μM peptide
Protocol: Ephrin-B2 AP binding to the indicated immobilized EphB receptor ectodomains was measured in the presence of the indicated peptides and detected by measuring alkaline phosphatase activity. […] Wells coated with the different EphB ectodomains were incubated with ephrin-B2 AP and 50 μM of the indicated peptides. Ephrin-B2 AP binding in the presence of peptide was normalized to binding in the absence of peptide. All peptides were biotinylated except for FSPQ and EWYM. […] The EWYM, TWO, and FSPQ peptides were not synthesized with a biotin tag and therefore were tested directly for inhibition of ephrin-B2 binding.
Ephrin-B2 AP was co-incubated for 1 hr with different peptide concentrations in Ni-NTA wells coated with 1 μg/ml Eph receptor Fc. After several washes, the amount of ephrin-B2-AP bound was quantified using p-nitrophenylphosphate as a substrate. Alkaline phosphatase activity from wells without EphB Fc was subtracted as background. […] In these experiments, the two peptides are not biotinylated. […] Ephrin-B2-AP binding in the presence of peptide was normalized to binding in the absence of peptide in (A) and (B).

Sequence: EWLSPNLAPSVR [SEQ ID NO 1]
- Inhibition of ephrin-B2 AP binding to EphB1 (in words) (EphB1 [1]): inhibited ephrin binding to EphB1
- Inhibition of EphB1 binding of phage clones isolated by panning on EphB1 (EphB1 [2]; 5 μM peptide): inhibited EphB1 binding of the phage clones isolated by panning on EphB1
- Inhibition of binding of the corresponding phage clone to EphB1 (EphB1 [2]; concentration-dependent): efficiently inhibited binding
- Selectivity of antagonism of ephrin-B2 AP binding across EphB ectodomains (EphB receptors): selective
